Reference: US7138361B2, “Herbicidal heterocycles” (E. I. du Pont de Nemours and Company, priority 2000, dated 2006)

Assays:
Format in all cases: in vivo
[1] = system: cocklebur (Xanthium strumarium); assay: Test B postemergence; conditions: 13 to 15 days
Excerpt: (§1) Seeds selected from barnyardgrass (Echinochloa crus-galli), Surinam grass (Brachiaria decumbens), cocklebur (Xanthium strumarium), corn (Zea mays), crabgrass (Digitaria sanguinalis), giant foxtail (Setaria faberii), lambsquarters (Chenopodium album), morning glory (Ipomoea hederacea), pigweed (Amaranthus retroflexus), rice (Oryza saliva) and velvetleaf (Abutilon theophrasti) were planted and treated preemergence with test chemicals formulated in a non-phytotoxic solvent mixture which included a surfactant.
(§2) At the same time, plants selected from these crop and weed species and also blackgrass (Alopecurus myosuroides), wheat (Triticum aestivum) and wild oat (Avena fatua) were treated with postemergence applications of test chemicals formulated in the same manner. Plants ranged in height from 2 to 18 cm (1- to 4-leaf stage) for postemergence treatments. Plant species in the flooded paddy test consisted of rice (Oryza saliva), smallflower flatsedge (Cyperus difformis), duck salad (Heteranthera limosa) and barnyardgrass (Echinochloa crus-galli) grown to the 2-leaf stage for testing. Treated plants and controls were maintained in a greenhouse for 13 to 15 days, after which time all species were compared to controls and visually evaluated. Plant response ratings, summarized in Table B, are based on a scale of 0 to 100 where 0 is no effect and 100 is complete control. A dash (-) response means no test result.

[2] = system: wheat (Triticum aestivum); assay: Test B postemergence; conditions: 13 to 15 days
Excerpt: as §1, §2

[3] = system: pigweed (Amaranthus retroflexus); assay: Test B postemergence; conditions: 13 to 15 days
Excerpt: as §1, §2

[4] = system: crabgrass (Digitaria sanguinalis); assay: Test B postemergence; conditions: 13 to 15 days
Excerpt: as §1, §2

[5] = system: giant foxtail (Setaria faberii); assay: Test B postemergence; conditions: 13 to 15 days
Excerpt: as §1, §2

[6] = system: velvetleaf (Abutilon theophrasti); assay: Test B postemergence; conditions: 13 to 15 days
Excerpt: as §1, §2

[7] = system: blackgrass (Alopecurus myosuroides); assay: Test B postemergence; conditions: 13 to 15 days
Excerpt: as §1, §2

corn (Zea mays) [8] = assay: Test B postemergence; conditions: 13 to 15 days
Excerpt: as §1, §2

[9] = system: barnyardgrass (Echinochloa crus-galli); assay: Test B postemergence; conditions: 13 to 15 days
Excerpt: as §1, §2

wild oat (Avena fatua) = assay: Test B postemergence; conditions: 13 to 15 days
Excerpt: as §1, §2

[10] = system: lambsquarters (Chenopodium album); assay: Test B postemergence; conditions: 13 to 15 days
Excerpt: as §1, §2

[11] = system: Surinam grass (Brachiaria decumbens); assay: Test B postemergence; conditions: 13 to 15 days
Excerpt: as §1, §2

[12] = system: morning glory (Ipomoea hederacea); assay: Test B postemergence; conditions: 13 to 15 days
Excerpt: as §1, §2

rice (Oryza saliva) [13] = assay: Test C flooded paddy test; conditions: for Rice plant response rating: Flooded Paddy, scale 0 to 100, 0 no effect, 100 complete control; for Plant response rating, Rice: flooded paddy test, scale 0 to 100 (0 no effect, 100 complete control)
Method: (§3) At the same time, plants selected from these crop and weed species and also winter barley (Hordeum vulgare), blackgrass (Alopecurus myosuroides), canary grass (Phalaris minor), chickweed (Stellaria media), downy brome (Bromus tectorum), green foxtail (Setaria viridis), Italian ryegrass (Lolium multiflorum), wheat (Triticum aestivum), wild oat (Avena fatua) and windgrass (Apera spica-venti) were treated with postemergence applications of some of the test chemicals formulated in the same manner. Plants ranged in height from 2 to 18 cm (1- to 4-leaf stage) for postemergence treatments. Plant species in the flooded paddy test consisted of rice (Oryza saliva), smallflower flatsedge (Cyperus difformis), duck salad (Heteranthera limosa) and barnyardgrass (Echinochloa crus-galli) grown to the 2-leaf stage for testing. Treated plants and controls were maintained in a greenhouse for 12 to 14 days, after which time all species were compared to controls and visually evaluated. Plant response ratings, summarized in Table C, are based on a scale of 0 to 100 where 0 is no effect and 100 is complete control. A dash (-) response means no test result.

[14] = system: barnyardgrass (Echinochloa crus-galli); assay: Test C flooded paddy test; conditions: for Barnyardgrass plant response rating: Flooded Paddy, scale 0 to 100, 0 no effect, 100 complete control; for Plant response rating, Barnyardgrass: flooded paddy test, scale 0 to 100 (0 no effect, 100 complete control)
Method: as §3

[15] = system: duck salad (Heteranthera limosa); assay: Test C flooded paddy test; conditions: for Ducksalad plant response rating: Flooded Paddy, scale 0 to 100, 0 no effect, 100 complete control; for Plant response rating, Ducksalad: flooded paddy test, scale 0 to 100 (0 no effect, 100 complete control)
Method: as §3

[16] = system: smallflower flatsedge (Cyperus difformis); assay: Test C flooded paddy test; conditions: for Flatsedge plant response rating: Flooded Paddy, scale 0 to 100, 0 no effect, 100 complete control; for Plant response rating, Flatsedge: flooded paddy test, scale 0 to 100 (0 no effect, 100 complete control)
Method: as §3

[17] = system: cocklebur (Xanthium strumarium); assay: Test B preemergence
Excerpt: as §1, §2

[18] = system: pigweed (Amaranthus retroflexus); assay: Test B preemergence
Excerpt: as §1, §2

[19] = system: crabgrass (Digitaria sanguinalis); assay: Test B preemergence
Excerpt: as §1, §2

[20] = system: giant foxtail (Setaria faberii); assay: Test B preemergence
Excerpt: as §1, §2

rice (Oryza saliva) [21] = assay: Test B preemergence
Excerpt: as §1, §2

[22] = system: velvetleaf (Abutilon theophrasti); assay: Test B preemergence
Excerpt: as §1, §2

corn (Zea mays) [23] = assay: Test B preemergence
Excerpt: as §1, §2

[24] = system: barnyardgrass (Echinochloa crus-galli); assay: Test B preemergence
Excerpt: as §1, §2

[25] = system: lambsquarters (Chenopodium album); assay: Test B preemergence
Excerpt: as §1, §2

[26] = system: Surinam grass (Brachiaria decumbens); assay: Test B preemergence
Excerpt: as §1, §2

[27] = system: morning glory (Ipomoea hederacea); assay: Test B preemergence
Excerpt: as §1, §2

[28] = Rate 125 g/ha, scale 0 (no effect) to 100 (complete control)
[29] = Rate 500 g/ha, scale 0 to 100, 0 is no effect, 100 is complete control
[30] = Preemergence, Rate 500 g/ha, scale 0 to 100, 0 no effect, 100 complete control
[31] = preemergence, Rate 125 g/ha, scale of 0 to 100 where 0 is no effect and 100 is complete control, 13 to 15 days

## CC(C)(C)c1ccn(C2CCN(c3cccc(OC(F)(F)C(F)F)c3)C2=O)n1 (centres unmarked) [Compound 48]
[1]; [28]
  Plant response rating, Cocklebur: 0
[1]; [29]
  Plant response rating, Cocklebur: 0
[2]; [28]
  Plant response rating, Wheat: 0
[2]; [29]
  Plant response rating, Wheat: 0
[3]; [28]
  Plant response rating, Pigweed: 0
[3]; [29]
  Plant response rating, Pigweed: 0
[4]; [28]
  Plant response rating, Crabgrass: 0
[4]; [29]
  Plant response rating, Crabgrass: 0
[5]; [28]
  Plant response rating, Foxtail, Giant: 0
[5]; [29]
  Plant response rating, Foxtail, Giant: 0
[6]; [28]
  Plant response rating, Velvetleaf: 0
[6]; [29]
  Plant response rating, Velvetleaf: 0
[7]; [28]
  Plant response rating, Blackgrass: 0
[7]; [29]
  Plant response rating, Blackgrass: 0
Corn (Zea mays) [8]; [28]
  Plant response rating, Corn: 0
Corn (Zea mays) [8]; [29]
  Plant response rating, Corn: 0
[9]; [28]
  Plant response rating, Barnyardgrass: 0
[9]; [29]
  Plant response rating, Barnyardgrass: 0
Wild oat (Avena fatua); [28]
  Plant response rating, Wild Oat: 0
Wild oat (Avena fatua); [29]
  Plant response rating, Wild Oat: 0
[10]; [28]
  Plant response rating, Lambsquarters: 0
[10]; [29]
  Plant response rating, Lambsquarters: 80
[11]; [28]
  Plant response rating, Surinam grass: 0
[11]; [29]
  Plant response rating, Surinam grass: 0
[12]; [28]
  Plant response rating, Morningglory: 0
[12]; [29]
  Plant response rating, Morningglory: 0
Rice (Oryza saliva) [13]; Rate 250 g/ha
  Rice plant response rating: 20
Rice (Oryza saliva) [13]; Rate 500 g/ha
  Rice plant response rating: 50
Rice (Oryza saliva) [13]; Rate 62 g/ha
  Plant response rating, Rice: 0
Rice (Oryza saliva) [13]; Rate 125 g/ha
  Plant response rating, Rice: 0
[14]; Rate 250 g/ha
  Barnyardgrass plant response rating: 100
[14]; Rate 500 g/ha
  Barnyardgrass plant response rating: 100
[14]; Rate 62 g/ha
  Plant response rating, Barnyardgrass: 20
[14]; Rate 125 g/ha
  Plant response rating, Barnyardgrass: 40
[15]; Rate 250 g/ha
  Ducksalad plant response rating: 70
[15]; Rate 500 g/ha
  Ducksalad plant response rating: 90
[15]; Rate 62 g/ha
  Plant response rating, Ducksalad: 0
[15]; Rate 125 g/ha
  Plant response rating, Ducksalad: 20
[16]; Rate 250 g/ha
  Flatsedge plant response rating: 100
[16]; Rate 500 g/ha
  Flatsedge plant response rating: 100
[16]; Rate 62 g/ha
  Plant response rating, Flatsedge: 90
[16]; Rate 125 g/ha
  Plant response rating, Flatsedge: 90
[17]; [30]
  Plant response rating, Cocklebur: 0
[17]; [31]
  Plant response rating, Cocklebur: 0
[18]; [30]
  Plant response rating, Pigweed: 0
[18]; [31]
  Plant response rating, Pigweed: 0
[19]; [30]
  Plant response rating, Crabgrass: 80
[19]; [31]
  Plant response rating, Crabgrass: 0
[20]; [30]
  Plant response rating, Foxtail, Giant: 0
[20]; [31]
  Plant response rating, Foxtail, Giant: 0
Rice (Oryza saliva) [21]; [30]
  Plant response rating, Rice: 0
Rice (Oryza saliva) [21]; [31]
  Plant response rating, Rice: 0
[22]; [30]
  Plant response rating, Velvetleaf: 0
[22]; [31]
  Plant response rating, Velvetleaf: 0
Corn (Zea mays) [23]; [30]
  Plant response rating, Corn: 0
Corn (Zea mays) [23]; [31]
  Plant response rating, Corn: 0
[24]; [30]
  Plant response rating, Barnyardgrass: 0
[24]; [31]
  Plant response rating, Barnyardgrass: 0
[25]; [30]
  Plant response rating, Lambsquarters: 100
[25]; [31]
  Plant response rating, Lambsquarters: 100
[26]; [30]
  Plant response rating, Surinam grass: 0
[26]; [31]
  Plant response rating, Surinam grass: 0
[27]; [30]
  Plant response rating, Morningglory: 0
[27]; [31]
  Plant response rating, Morningglory: 0

## CC(C)c1ccn(C2OCN(c3cccc(OC(F)(F)F)c3)C2=O)n1 (centres unmarked) [Compound 65]
[1]; [28]
  Plant response rating, Cocklebur: 20
[1]; [29]
  Plant response rating, Cocklebur: 30
[2]; [28]
  Plant response rating, Wheat: 0
[2]; [29]
  Plant response rating, Wheat: 0
[3]; [28]
  Plant response rating, Pigweed: 0
[3]; [29]
  Plant response rating, Pigweed: 0
[4]; [28]
  Plant response rating, Crabgrass: 0
[4]; [29]
  Plant response rating, Crabgrass: 100
[5]; [28]
  Plant response rating, Foxtail, Giant: 0
[5]; [29]
  Plant response rating, Foxtail, Giant: 0
[6]; [28]
  Plant response rating, Velvetleaf: 0
[6]; [29]
  Plant response rating, Velvetleaf: 0
[7]; [28]
  Plant response rating, Blackgrass: 0
[7]; [29]
  Plant response rating, Blackgrass: 0
Corn (Zea mays) [8]; [28]
  Plant response rating, Corn: 0
Corn (Zea mays) [8]; [29]
  Plant response rating, Corn: 0
[9]; [28]
  Plant response rating, Barnyardgrass: 0
[9]; [29]
  Plant response rating, Barnyardgrass: 100
Wild oat (Avena fatua); [28]
  Plant response rating, Wild Oat: 0
Wild oat (Avena fatua); [29]
  Plant response rating, Wild Oat: 0
[10]; [28]
  Plant response rating, Lambsquarters: 60
[10]; [29]
  Plant response rating, Lambsquarters: 70
[11]; [28]
  Plant response rating, Surinam grass: 20
[11]; [29]
  Plant response rating, Surinam grass: 40
[12]; [28]
  Plant response rating, Morningglory: 0
[12]; [29]
  Plant response rating, Morningglory: 0
Rice (Oryza saliva) [13]; Rate 250 g/ha
  Rice plant response rating: 90
Rice (Oryza saliva) [13]; Rate 500 g/ha
  Rice plant response rating: 90
Rice (Oryza saliva) [13]; Rate 62 g/ha
  Plant response rating, Rice: 0
Rice (Oryza saliva) [13]; Rate 125 g/ha
  Plant response rating, Rice: 40
[14]; Rate 250 g/ha
  Barnyardgrass plant response rating: 100
[14]; Rate 500 g/ha
  Barnyardgrass plant response rating: 100
[14]; Rate 62 g/ha
  Plant response rating, Barnyardgrass: 40
[14]; Rate 125 g/ha
  Plant response rating, Barnyardgrass: 80
[15]; Rate 250 g/ha
  Ducksalad plant response rating: 30
[15]; Rate 500 g/ha
  Ducksalad plant response rating: 90
[15]; Rate 62 g/ha
  Plant response rating, Ducksalad: 0
[15]; Rate 125 g/ha
  Plant response rating, Ducksalad: 0
[16]; Rate 250 g/ha
  Flatsedge plant response rating: 100
[16]; Rate 500 g/ha
  Flatsedge plant response rating: 100
[16]; Rate 62 g/ha
  Plant response rating, Flatsedge: 0
[16]; Rate 125 g/ha
  Plant response rating, Flatsedge: 100
[17]; [30]
  Plant response rating, Cocklebur: 20
[17]; [31]
  Plant response rating, Cocklebur: 0
[18]; [30]
  Plant response rating, Pigweed: 100
[18]; [31]
  Plant response rating, Pigweed: 100
[19]; [30]
  Plant response rating, Crabgrass: 70
[19]; [31]
  Plant response rating, Crabgrass: 20
[20]; [30]
  Plant response rating, Foxtail, Giant: 70
[20]; [31]
  Plant response rating, Foxtail, Giant: 20
Rice (Oryza saliva) [21]; [30]
  Plant response rating, Rice: 20
Rice (Oryza saliva) [21]; [31]
  Plant response rating, Rice: 0
[22]; [30]
  Plant response rating, Velvetleaf: 20
[22]; [31]
  Plant response rating, Velvetleaf: 0
Corn (Zea mays) [23]; [30]
  Plant response rating, Corn: 0
Corn (Zea mays) [23]; [31]
  Plant response rating, Corn: 0
[24]; [30]
  Plant response rating, Barnyardgrass: 100
[24]; [31]
  Plant response rating, Barnyardgrass: 90
[25]; [30]
  Plant response rating, Lambsquarters: 100
[25]; [31]
  Plant response rating, Lambsquarters: 100
[26]; [30]
  Plant response rating, Surinam grass: 20
[26]; [31]
  Plant response rating, Surinam grass: 0
[27]; [30]
  Plant response rating, Morningglory: 0
[27]; [31]
  Plant response rating, Morningglory: 0
